In PubChem BioAssay (NCI):
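Tested at 5 concentrations; 48 h exposure; 96-well plates; endpoints linearly interpolated, else capped at highest concentration. TGI: total growth inhibition.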

What was measured:
Experiment in all cases: NCI anticancer screen, dose series, 48 h
MOLT-4 leukemia = test system: MOLT-4 leukemia
KM12 colon = test system: KM12 colon
DMS 114 small cell lung = test system: DMS 114 small cell lung
SN12C renal = test system: SN12C renal
SK-MEL-28 melanoma = test system: SK-MEL-28 melanoma
RXF 393 renal = test system: RXF 393 renal
RXF-631 renal = test system: RXF-631 renal
NCI-H226 lung = test system: NCI-H226 lung
RPMI-8226 leukemia = test system: RPMI-8226 leukemia
SF-539 CNS = test system: SF-539 CNS
EKVX NSCLC = test system: EKVX NSCLC
HCC-2998 colon = test system: HCC-2998 colon
NCI-H23 lung = test system: NCI-H23 lung
HCT-116 colon = test system: HCT-116 colon
UACC-62 melanoma = test system: UACC-62 melanoma
SR leukemia = test system: SR leukemia
K-562 leukemia = test system: K-562 leukemia
SK-OV-3 ovarian = test system: SK-OV-3 ovarian
MALME-3M melanoma = test system: MALME-3M melanoma
M14 melanoma = test system: M14 melanoma
LOX IMVI melanoma = test system: LOX IMVI melanoma
SK-MEL-2 melanoma = test system: SK-MEL-2 melanoma
ACHN renal = test system: ACHN renal
CCRF-CEM leukemia = test system: CCRF-CEM leukemia
TK-10 renal = test system: TK-10 renal
HT29 colon = test system: HT29 colon
LXFL 529 NSCLC = test system: LXFL 529 NSCLC
SNB-78 CNS = test system: SNB-78 CNS
HOP-62 NSCLC = test system: HOP-62 NSCLC
DLD-1 colon = test system: DLD-1 colon
SW-620 colon = test system: SW-620 colon
UACC-257 melanoma = test system: UACC-257 melanoma
SF-295 CNS = test system: SF-295 CNS
COLO 205 colon = test system: COLO 205 colon
M19-MEL melanoma = test system: M19-MEL melanoma
IGROV1 ovarian = test system: IGROV1 ovarian
NCI-H522 lung = test system: NCI-H522 lung
SF-268 CNS = test system: SF-268 CNS
HOP-18 NSCLC = test system: HOP-18 NSCLC
OVCAR-3 ovarian = test system: OVCAR-3 ovarian
HCT-15 colon = test system: HCT-15 colon
HL-60(TB) leukemia = test system: HL-60(TB) leukemia
SNB-75 CNS = test system: SNB-75 CNS
A498 renal = test system: A498 renal
HOP-92 NSCLC = test system: HOP-92 NSCLC
NCI-H460 lung = test system: NCI-H460 lung
SK-MEL-5 melanoma = test system: SK-MEL-5 melanoma
OVCAR-5 ovarian = test system: OVCAR-5 ovarian
UO-31 renal = test system: UO-31 renal
A549 NSCLC = test system: A549 NSCLC
SNB-19 CNS = test system: SNB-19 CNS
786-0 renal = test system: 786-0 renal
CAKI-1 renal = test system: CAKI-1 renal
OVCAR-8 ovarian = test system: OVCAR-8 ovarian
U251 CNS = test system: U251 CNS
KM20L2 colon = test system: KM20L2 colon
DMS 273 small cell lung = test system: DMS 273 small cell lung
OVCAR-4 ovarian = test system: OVCAR-4 ovarian

For `COc1ccc(SS(=O)(=O)c2ccc(OC)cc2)cc1`, the TGI (MOLT-4 leukemia) was 47.8 µM, the TGI (KM12 colon) was 30.7 µM and the TGI (DMS 114 small cell lung) was 30.6 µM. The TGI (SN12C renal) was 36.7 µM, the TGI (SK-MEL-28 melanoma) was 40.1 µM and the TGI (RXF 393 renal) was 32.3 µM. For the same compound, the TGI (RXF-631 renal) was > 100 µM, the TGI (NCI-H226 lung) was 50.1 µM and the TGI (RPMI-8226 leukemia) was 75.4 µM. The TGI (SF-539 CNS) was 34 µM, the TGI (EKVX NSCLC) was 71.6 µM and the TGI (HCC-2998 colon) was 29.8 µM. The TGI (NCI-H23 lung) was 49.1 µM, the TGI (HCT-116 colon) was 30.3 µM and the TGI (UACC-62 melanoma) was 38.5 µM. For the same compound, the TGI (SR leukemia) was 61.4 µM, the TGI (K-562 leukemia) was 47 µM and the TGI (SK-OV-3 ovarian) was 69.4 µM. For the same compound, the TGI (MALME-3M melanoma) was 80.4 µM, the TGI (M14 melanoma) was 41.6 µM and the TGI (LOX IMVI melanoma) was 31.8 µM. For the same compound, the TGI (SK-MEL-2 melanoma) was 87.5 µM, the TGI (ACHN renal) was 33.1 µM and the TGI (CCRF-CEM leukemia) was 10.2 µM. It also gave a TGI (TK-10 renal) of 50.2 µM, a TGI (HT29 colon) of 64.1 µM and a TGI (LXFL 529 NSCLC) of 34.4 µM. The TGI (SNB-78 CNS) was > 100 µM, the TGI (HOP-62 NSCLC) was 50.9 µM and the TGI (DLD-1 colon) was 52.3 µM. The TGI (SW-620 colon) was 18.1 µM, the TGI (UACC-257 melanoma) was 49.4 µM and the TGI (SF-295 CNS) was 39.3 µM. The TGI (COLO 205 colon) was 33.2 µM, the TGI (M19-MEL melanoma) was 46.4 µM and the TGI (IGROV1 ovarian) was 24.4 µM. The TGI (NCI-H522 lung) was 29.2 µM, the TGI (SF-268 CNS) was 32.9 µM and the TGI (HOP-18 NSCLC) was 48.3 µM. The TGI (OVCAR-3 ovarian) was 33.8 µM, the TGI (HCT-15 colon) was > 100 µM and the TGI (HL-60(TB) leukemia) was 7.81 µM. The TGI (SNB-75 CNS) was 45.5 µM, the TGI (A498 renal) was 37 µM and the TGI (HOP-92 NSCLC) was 60.4 µM. For the same compound, the TGI (NCI-H460 lung) was 83.9 µM, the TGI (SK-MEL-5 melanoma) was 33 µM and the TGI (OVCAR-5 ovarian) was 76.4 µM. For the same compound, the TGI (UO-31 renal) was 27.2 µM, the TGI (A549 NSCLC) was 69.2 µM and the TGI (SNB-19 CNS) was 65 µM. It also gave a TGI (786-0 renal) of 32.7 µM, a TGI (CAKI-1 renal) of 43.3 µM and a TGI (OVCAR-8 ovarian) of 31.9 µM. It also gave a TGI (U251 CNS) of 27.6 µM and a TGI (KM20L2 colon) of 38 µM.

In the case of `CC(C)[C@@H](C)CC[C@@H](C)C1CC=C2[C@@H]3CCC4C[C@@H](O[Si](C)(C)C(C)(C)C)CC[C@]4(C)C3CC[C@@]21C` (some centres not stated), the TGI (MOLT-4 leukemia) is reported as > 100 µM, the TGI (KM12 colon) is reported as > 100 µM and the TGI (DMS 114 small cell lung) is reported as > 100 µM. The TGI (SN12C renal) was > 100 µM, the TGI (SK-MEL-28 melanoma) was > 100 µM and the TGI (RXF 393 renal) was > 100 µM. For the same compound, the TGI (RXF-631 renal) was > 100 µM, the TGI (NCI-H226 lung) was > 100 µM and the TGI (RPMI-8226 leukemia) was > 100 µM. The TGI (SF-539 CNS) was > 100 µM, the TGI (EKVX NSCLC) was > 100 µM and the TGI (HCC-2998 colon) was > 100 µM. The TGI (DMS 273 small cell lung) was > 100 µM, the TGI (HCT-116 colon) was > 100 µM and the TGI (UACC-62 melanoma) was > 100 µM. For the same compound, the TGI (SR leukemia) was > 100 µM, the TGI (K-562 leukemia) was > 100 µM and the TGI (SK-OV-3 ovarian) was > 100 µM. The TGI (MALME-3M melanoma) was > 100 µM, the TGI (M14 melanoma) was > 100 µM and the TGI (SK-MEL-2 melanoma) was > 100 µM. For the same compound, the TGI (ACHN renal) was > 100 µM, the TGI (CCRF-CEM leukemia) was > 100 µM and the TGI (TK-10 renal) was > 100 µM. The TGI (LXFL 529 NSCLC) was > 100 µM, the TGI (SNB-78 CNS) was > 100 µM and the TGI (HOP-62 NSCLC) was > 100 µM. The TGI (SW-620 colon) was > 100 µM, the TGI (UACC-257 melanoma) was > 100 µM and the TGI (COLO 205 colon) was > 100 µM. For the same compound, the TGI (M19-MEL melanoma) was > 100 µM, the TGI (IGROV1 ovarian) was > 100 µM and the TGI (NCI-H522 lung) was > 100 µM. The TGI (SF-268 CNS) was > 100 µM, the TGI (HOP-18 NSCLC) was > 100 µM and the TGI (OVCAR-3 ovarian) was > 100 µM. For the same compound, the TGI (HCT-15 colon) was > 100 µM, the TGI (HL-60(TB) leukemia) was > 100 µM and the TGI (SNB-75 CNS) was > 100 µM. For the same compound, the TGI (A498 renal) was > 100 µM, the TGI (OVCAR-4 ovarian) was > 100 µM and the TGI (NCI-H460 lung) was > 100 µM. For the same compound, the TGI (SK-MEL-5 melanoma) was > 100 µM, the TGI (UO-31 renal) was > 100 µM and the TGI (A549 NSCLC) was > 100 µM. For the same compound, the TGI (SNB-19 CNS) was > 100 µM, the TGI (786-0 renal) was > 100 µM and the TGI (CAKI-1 renal) was > 100 µM. The TGI (OVCAR-8 ovarian) was > 100 µM, the TGI (U251 CNS) was > 100 µM and the TGI (KM20L2 colon) was > 100 µM.
